Data: US8354537B2, “R,R1-atracurium salts” (CHEMAGIS Ltd., priority 2007, dated 2013)

Experiment: Stability of the R,R′-atracurium salts in a closed vial at room temperature, monitored by HPLC
Type: physicochemical
Settings: solid salt; for % content of the 1R-cis,1′R-cis isomer in the sample, After 19 days / % content of the 1R-cis,1′R-cis isomer in the sample, After 34 days / % content of the 1R-cis,1′R-cis isomer in the sample, After 47 days: HPLC; for % content of the 1R-cis,1′R-cis isomer in the sample, Reference sample (t0): t0, HPLC
Source text: 1 g of the R,R′-atracurium salt was placed in a closed vial, which was left aside at room temperature. From time to time the vial was opened and a sample was withdrawn and monitored by HPLC. The results are summarized in Table 3 and expressed as % content of the 1R-cis,1′R-cis isomer in the sample as function of the elapsed time, as measured by HPLC.

Row | Compound | % content of the 1R-cis,1′R-cis isomer in the sample, After 19 days | % content of the 1R-cis,1′R-cis isomer in the sample, After 34 days | % content of the 1R-cis,1′R-cis isomer in the sample, After 47 days | % content of the 1R-cis,1′R-cis isomer in the sample, Reference sample (t0)
1 | COc1ccc(C[C@@H]2c3cc(OC)c(OC)cc3CC[N+]2(C)CCC(=O)OCCCCCOC(=O)CC[N+]2(C)CCc3cc(OC)c(OC)cc3[C@H]2Cc2ccc(OC)c(OC)c2)cc1OC.O=S(=O)([O-])c1ccccc1.O=S(=O)([O-])c1ccccc1 (stereo partly drawn) [besylate, R,R′-atracurium besylate, reference compound] | 80.5% | 15.1% | 7.9% | 97.2%
2 | R,R′-atracurium perchlorate | 92.1% | 92.7% | 92.3% | 98%
3 | R,R′-atracurium tetrafluoroborate | 88.8% | 85.3% | 82.6% | 98.2%
